US20240316147A1, “PHARMACEUTICAL COMPOSITION COMPRISING AN APL TYPE PEPTIDE” (CENTRO DE INGENIERIA GENÉTICA Y BIOTECNOLOGIA, priority 2017, published 2024)
Entries after “also recorded” stand apart in the source; their conditions may differ. Where no end group is shown, it is not given here.

Legend:
Format in all cases: physicochemical
[1] = Solubility of the peptide in buffers and excipients, determined by RP-HPLC
Method: Different ionic species, pH and excipients were evaluated, to achieve the total solubility of the peptide, and a high chemical stability. Solubility of peptide was evaluated with different excipients, which included different ionic salts, sugars, polyols, amino acids and detergents.
First stage of the formulation development included the evaluation of buffer species influence and pH on chemical and physical stability of the peptide.

[2] = Stability of the peptide in 50 mM sodium phosphate buffer pH 7.4 at 37° C. (RP-HPLC, mass spectrometry)
Method: FIG. 1. Chromatographic profile of APL-type peptide identified as Seq ID No. 1 dissolved in 50 mM sodium phosphate buffer, pH 7.4. The profile was obtained by reverse phase chromatography (RP-HPLC), (A) time 0, (B) 15 days of storage at 37° C.
APL type peptide was obtained by chemical synthesis. […] To study the causes of such effect, peptide was dissolved in that buffer and stored at 37° C. for 15 days. Subsequently, several aliquots were analyzed periodically by RP-HPLC. Presence of contaminating species was verified, these were purified and analyzed by mass spectrometry, and several fractions were identified that could correspond to degradations.
In order to accelerate the degradation, peptide was incubated under stress conditions that allow the possible degraded species of the peptide to be obtained fast and in high proportions. Fractions collected after RP-HPLC were characterized by mass spectrometry.

[3] = Molecular exclusion chromatography-HPLC of the peptide in water, PBS and sucrose; details: dissolved in water (control)
Text: FIG. 3. Molecular exclusion chromatography—HPLC of the peptide of Seq ID No. 1 dissolved in water (A), in phosphate buffered saline (PBS) (B) and in sucrose (C).
In PBS the peptide eluted in a shorter retention time, compared to the sample dissolved in water and in sucrose solution.

[4] = Effect of pH on concentration and purity of the peptide in 50 mM sodium acetate buffer (RP-HPLC); details: 2.5 mg/mL in 50 mM sodium acetate buffer, pH 3.0, 4.0, 5.0; 4° C. or 37° C., 15 days
Method: FIG. 4. Effect of pH on concentration of peptide identified as Seq ID No. 1, in samples formulated and stored at 4° C. (A) and at 37° C. (B).
FIG. 5. Effect of pH on the purity of the peptide identified as Seq ID No. 1, in samples formulated and stored at 37° C.
Three pH values were analyzed: 3.0; 4.0 and 5.0. Samples were filtered and stored at 4° C. or at 37° C., for 15 days. Evaluation of stability and concentration of peptide was carried out by RP-HPLC. Results of concentration of peptide stored at 4° C. or at 37° C., respectively, are shown in FIGS. 4A and 4B, respectively. […] At 37° C., precipitation process is accelerated.
Chemical integrity of peptide (expressed as % purity in RP-HPLC) was greater than 95%, for the samples formulated in three pH values, when these were stored at 4° C., for 15 days.

solubility of peptide ([1]; in other ionic species: sodium citrate, sodium glutamate and Tris-HCl): very poorly soluble
solubility of peptide ([1]; in solutions of sucrose or trehalose, peptide 1-10 mg/mL): highest solubility
solubility of peptide ([1]; sodium acetate buffer (acetic acid and sodium hydroxide), 10-70 mM): best solubilized the peptide
degraded species identified by mass spectrometry (fractions 1, 2 and 4) ([2]; 50 mM sodium phosphate buffer pH 7.4, 15 days at 37° C.): deamidated variants of the peptide
stability of peptide in solution ([2]; 50 mM sodium phosphate buffer, pH 7.4): progressively destabilized
solubility of peptide [3]: good solubility
physical stability of peptide [4]: greater at pH 3.0
Sequence: SIDLKDKYKNIGAKLVQLVANNTNEEA [peptide identified as Seq ID No. 1]
solubility of peptide ([1]; in sodium phosphate buffer (50 mM, pH 7.4)): very poorly soluble; also recorded: poorly soluble
